From ChEMBL document CHEMBL3991601, “The target landscape of clinical kinase drugs” (Science, 2017)
Active and inactive are the calls of the source. On the calls: in the data inactive means no Kd found up to 30 µM.

Biological target: Cyclin-dependent kinase 9 (Homo sapiens, UniProt P50750)
Sequence (P50750 whole entry): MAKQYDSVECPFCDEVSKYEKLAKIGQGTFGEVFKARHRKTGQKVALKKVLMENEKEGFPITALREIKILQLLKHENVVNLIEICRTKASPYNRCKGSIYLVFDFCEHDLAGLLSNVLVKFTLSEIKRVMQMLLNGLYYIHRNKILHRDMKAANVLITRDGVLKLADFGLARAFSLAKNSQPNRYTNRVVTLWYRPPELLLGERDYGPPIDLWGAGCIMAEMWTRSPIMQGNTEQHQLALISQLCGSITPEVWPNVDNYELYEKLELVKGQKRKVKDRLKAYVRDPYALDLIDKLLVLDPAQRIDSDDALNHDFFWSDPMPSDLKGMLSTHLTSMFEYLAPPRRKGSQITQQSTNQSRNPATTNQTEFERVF

SMILES: CO[C@H]1C[C@@H]2CC[C@@H](C)[C@@](O)(O2)C(=O)C(=O)N2CCCC[C@H]2C(=O)O[C@H]([C@H](C)C[C@@H]2CC[C@@H](OCCO)[C@H](OC)C2)CC(=O)[C@H](C)/C=C(\C)[C@@H](O)[C@@H](OC)C(=O)[C@H](C)C[C@H](C)/C=C/C=C/C=C/1C [EVEROLIMUS]
- Kd: > 30 µM (inactive)
